{"source": "patent US20240218066A1", "about": "“USE OF ANTI-PD-1 ANTIBODY IN COMBINATION WITH FIRST-LINE CHEMOTHERAPY IN TREATMENT OF ADVANCED NON-SMALL CELL LUNG CANCER” (SHANGHAI JUNSHI BIOSCIENCES CO., LTD., priority 2021, published 2024)", "key": {"[1]": {"test_system": "patients with untreated advanced NSCLC", "test": "Phase III clinical study, efficacy assessed by the BIRC according to RECIST 1.1", "format": "in vivo, human", "set-up": "reduction of the risk of progression or death, compared to standard chemotherapy / increase of PFS rate at 6 months compared to control group / increase of PFS rate at 12 months compared to control group / increase in ORR compared to control group: concentration or dose not given beside the values", "method": "(§1) About 450 patients with advanced NSCLC not accompanied by EGFR-sensitive mutations and ALK fusions were randomly divided into two groups according to a 2:1 ratio, with the test group receiving toripalimab in combination with first-line standard chemotherapy and the control group receiving placebo in combination with first-line standard chemotherapy. Stratification was performed according to PD-L1 expression (TC≥1% vs TC<1%), smoking status (frequent smoking vs no smoking or little smoking), and pathological type (squamous cell carcinoma vs non-squamous cell carcinoma).\n(§2) After randomization, the patients were subjected to treatment in the induction stage for 4-6 cycles, during which the patients received toripalimab/placebo+first-line standard chemotherapy. After the induction stage was over, the patients were subjected to treatment in the maintenance stage, during which patients with squamous cell carcinoma continued to receive toripalimab/placebo treatment until progressive disease, and patients with non-squamous cell carcinoma continued to receive toripalimab/placebo+pemetrexed treatment until progressive disease.\nTumor assessments were performed once every 6 weeks for the first 12 months of the study stage according to RECIST 1.1 and iRECIST; after 12 months, tumor assessments were performed every 9 weeks until progressive disease, initiation of a new anti-tumor therapy, intolerable toxicity, withdrawal of informed consent or death, 2 years of treatment with toripalimab, or other reasons as specified in the protocol, whichever occurred first.\nEligible subjects must (1) be patients with histologically and/or cytologically confirmed locally advanced (stage IIIB or IIIC) and stage IV non-small cell lung cancer that is inoperable and cannot receive radical concurrent chemoradiotherapy; (2) have at least one measurable lesion (according to RECIST 1.1); (3) have not received any systemic treatment (patients with recurrence more than 6 months after completion of prior neoadjuvant/adjuvant therapy may also be enrolled); (4) be aged between 18 and 75 years; (5) have ECOG of 0-1; (6) have an expected survival of ≥3 months; and (7) be available to provide tissue specimens for PD-L1 testing.\n(§3) Unless otherwise specified, the efficacy analysis was based on the ITT set, which was analyzed by groups according to the treatment regimen to which patients were assigned at randomization.\nThe progression-free survival rate and median progression-free survival of the JS001+first-line standard treatment group and the placebo+first-line standard treatment group at different time points after the start of treatment were estimated by the Kaplan-Meier method, and Kaplan-Meier curves were plotted. The 95% confidence interval for progression-free survival rate at different time points (6 months and 1 year) was estimated using the Greenwood formula. The 95% confidence interval for median progression-free survival was estimated using the Brookmeyer-Crowley method where the log-log function conversion was used to reach normal approximation. Statistical test was performed on the inter-group difference by a stratified log-rank method for the total population. Statistical test was performed on the inter-group difference by a non-stratified log-rank method for the subpopulations. A stratified COX proportional hazards model was used to estimate the inter-group hazard ratio (HR) and the corresponding 95% confidence interval, and the tied events were processed by an exact method. Stratification analysis was performed using 3 stratification factors in the randomization process, including: (1) PD-L1 expression (TC≥1% vs TC<1%); (2) smoking status (frequent smoking vs no smoking or little smoking); and (3) pathological type (squamous cell carcinoma vs non-squamous cell carcinoma).\nFor analysis of secondary efficacy endpoints OS, DOR, and TTR, the method described above as applied to the primary efficacy endpoint PFS was used. […]"}, "[2]": {"test_system": "patients with untreated advanced NSCLC", "test": "Phase III clinical study, overall survival (OS)", "format": "in vivo, human", "method": "as §1, §2, §3\nFor analysis of secondary efficacy endpoints OS, DOR, and TTR, the method described above as applied to the primary efficacy endpoint PFS was used. For ORR and DCR, the percentage of patients in each treatment group was calculated, and their 95% confidence intervals were calculated using the Clopper-Pearson method. The nominal P values for inter-group comparison were calculated using the Cochran-Mantel-Haenszel method considering randomization stratification factors that were the same as the primary efficacy analysis, and the 95% CI for the inter-group rate differences was estimated."}, "[3]": {"test_system": "patients with untreated advanced NSCLC", "test": "Phase III clinical study, safety analysis (SS population)", "protocol": "This is a randomized, double-blind, placebo-controlled, multicenter, phase III clinical study for assessing the efficacy and safety of toripalimab (JS001) or placebo in combination with first-line chemotherapy in patients with untreated advanced NSCLC and exploring the population with optimal biomarker prediction.\nToripalimab 240 mg/placebo was administered by intravenous infusion once every three weeks (Q3W) in cycles of 21 days, with treatment continued until the patients met the discontinuation criteria, i.e., recorded progressive disease, unacceptable AEs, investigator-assessed unsuitability for continued treatment, withdrawal of informed consent, 2 years of JS001 treatment, or other reasons as specified in the protocol.\nThe selection of cisplatin or carboplatin was at the discretion of the investigator.\nSafety analysis set (SS): including all patients who received at least one dose of the study drug (JS001/placebo/chemotherapeutic agent).\nSafety analysis was performed in SS and crossover treatment analysis sets, where safety data from the double-blind stage of the primary study and the crossover treatment stage were analyzed separately. Safety analyses include drug exposure, compliance, adverse events, laboratory examinations, vital signs, physical examinations, electrocardiogramaminations, ECOG scores, etc.\nAll safety analyses were based on the SS population (464 patients), including 308 patients in the test group and 156 patients in the control group. […] The primary safety analysis results based on the SS population in the double-blind stage of the primary study are as follows:"}, "[4]": {"details": "patients with non-squamous cell carcinoma"}, "[5]": {"details": "patients with squamous cell carcinoma"}, "[6]": {"details": "SS population, double-blind stage"}, "[7]": {"details": "compared to placebo + chemotherapy"}}, "data": [{"substance": "JS001 + standard first-line chemotherapy: toripalimab 240 mg Q3W plus albumin-bound paclitaxel+carboplatin (squamous) or pemetrexed+cisplatin/carboplatin (non-squamous)", "values": [{"measurement": "PFS rate at 6 months", "setting": "[1]; ITT", "value": 65.3, "unit": "%"}, {"measurement": "PFS rate at 12 months", "setting": "[1]; ITT", "value": 38.9, "unit": "%"}, {"measurement": "increase of PFS rate at 6 months compared to control group", "setting": "[1]; ITT", "value": 16, "unit": "%"}, {"measurement": "increase of PFS rate at 12 months compared to control group", "setting": "[1]; ITT", "value": 22.7, "unit": "%"}, {"measurement": "HR for PFS (test vs control)", "setting": "[1]; ITT population", "value": 0.61}, {"measurement": "PFS prolonged by, compared to standard chemotherapy", "setting": "[1]; ITT population", "value": 2.5, "unit": "months"}, {"measurement": "reduction of the risk of progression or death, compared to standard chemotherapy", "setting": "[1]; ITT population", "value": 39, "unit": "%"}, {"measurement": "median PFS", "setting": "[1]; ITT population, RECIST 1.1", "value": 8.3, "unit": "months"}, {"measurement": "Best overall response: Complete response (CR)", "setting": "[1]; non-squamous cell carcinoma", "value": "3 (1.9) N (%)"}, {"measurement": "Best overall response: Deletion", "setting": "[1]; non-squamous cell carcinoma", "value": "8 (4.9) N (%)"}, {"measurement": "Best overall response: Non-complete response/non-progressive disease (Non CR/Non PD)", "setting": "[1]; non-squamous cell carcinoma", "value": "0 N (%)"}, {"measurement": "Best overall response: Not evaluable (NE)", "setting": "[1]; non-squamous cell carcinoma", "value": "0 N (%)"}, {"measurement": "Best overall response: Partial response (PR)", "setting": "[1]; non-squamous cell carcinoma", "value": "94 (58.0) N (%)"}, {"measurement": "Best overall response: Progressive disease (PD)", "setting": "[1]; non-squamous cell carcinoma", "value": "8 (4.9) N (%)"}, {"measurement": "Duration of response (DOR), Median (95% confidence interval)", "setting": "[1]; non-squamous cell carcinoma", "value": "NE (6.9, NE)"}, {"measurement": "Objective response rate (ORR)", "setting": "[1]; non-squamous cell carcinoma", "value": "97 (59.9) N (%)"}, {"measurement": "DCR", "setting": "[1]; overall population", "value": 90.9, "unit": "%"}, {"measurement": "increase in ORR compared to control group", "setting": "[1]; overall population", "value": 20.8, "unit": "%"}, {"measurement": "ORR", "setting": "[1]; overall population, RECIST v1.1", "value": 65.7, "unit": "%"}, {"measurement": "HR for PFS (test vs control)", "setting": "[1]; [4]", "value": 0.55}, {"measurement": "ORR", "setting": "[1]; [4]", "value": 59.9, "unit": "%"}, {"measurement": "increase in ORR compared to control group", "setting": "[1]; [4]", "value": 27.4, "unit": "%"}, {"measurement": "median PFS", "setting": "[1]; [4]", "value": 10.3, "unit": "months"}, {"measurement": "HR for PFS (test vs control)", "setting": "[1]; [5]", "value": 0.63}, {"measurement": "ORR", "setting": "[1]; [5]", "value": 72.1, "unit": "%"}, {"measurement": "increase in ORR compared to control group", "setting": "[1]; [5]", "value": 13.3, "unit": "%"}, {"measurement": "median PFS", "setting": "[1]; [5]", "value": 6.9, "unit": "months"}, {"measurement": "Best overall response: Complete response (CR)", "setting": "[1]; squamous cell carcinoma", "value": "0 N (%)"}, {"measurement": "Best overall response: Deletion", "setting": "[1]; squamous cell carcinoma", "value": "8 (5.4) N (%)"}, {"measurement": "Best overall response: Non-complete response/non-progressive disease (Non CR/Non PD)", "setting": "[1]; squamous cell carcinoma", "value": "1 (0.7) N (%)"}, {"measurement": "Best overall response: Not evaluable (NE)", "setting": "[1]; squamous cell carcinoma", "value": "0 N (%)"}, {"measurement": "Best overall response: Partial response (PR)", "setting": "[1]; squamous cell carcinoma", "value": "106 (72.1) N (%)"}, {"measurement": "Best overall response: Progressive disease (PD)", "setting": "[1]; squamous cell carcinoma", "value": "3 (2.0) N (%)"}, {"measurement": "Duration of response (DOR), Median (95% confidence interval)", "setting": "[1]; squamous cell carcinoma", "value": "5.7 (5.2, 9.5)"}, {"measurement": "Objective response rate (ORR)", "setting": "[1]; squamous cell carcinoma", "value": "106 (72.1) N (%)"}, {"measurement": "HR for OS (test vs control)", "setting": "[2]; ITT population", "value": 0.81}, {"measurement": "median OS", "setting": "[2]; ITT population, as of Mar. 11, 2021, OS data not mature", "value": 21.0, "unit": "months"}, {"measurement": "deaths reported", "setting": "[2]; as of Mar. 11, 2021, median follow-up 9.82 months", "value": 25.6, "unit": "%"}, {"measurement": "HR for OS (test vs control)", "setting": "[2]; [4]", "value": 0.56}, {"measurement": "HR for OS (test vs control)", "setting": "[2]; [5]", "value": 1.23}, {"measurement": "median OS", "setting": "[2]; [5]", "value": 21.0, "unit": "months"}, {"measurement": "SAE: anemia", "setting": "[3]; SS population", "value": 5.2, "unit": "%"}, {"measurement": "SAE: bone marrow depression", "setting": "[3]; SS population", "value": 1.0, "unit": "%"}, {"measurement": "SAE: infectious pneumonia", "setting": "[3]; SS population", "value": 4.9, "unit": "%"}, {"measurement": "SAE: leukopenia", "setting": "[3]; SS population", "value": 2.9, "unit": "%"}, {"measurement": "SAE: neutropenia", "setting": "[3]; SS population", "value": 5.5, "unit": "%"}, {"measurement": "SAE: thrombocytopenia", "setting": "[3]; SS population", "value": 6.8, "unit": "%"}, {"measurement": "TEAE: anemia", "setting": "[3]; SS population", "value": 88.3, "unit": "%"}, {"measurement": "TEAE: anorexia", "setting": "[3]; SS population", "value": 32.1, "unit": "%"}, {"measurement": "TEAE: constipation", "setting": "[3]; SS population", "value": 18.5, "unit": "%"}, {"measurement": "TEAE: elevated aspartate aminotransferase", "setting": "[3]; SS population", "value": 31.8, "unit": "%"}, {"measurement": "TEAE: fatigue", "setting": "[3]; SS population", "value": 33.4, "unit": "%"}, {"measurement": "TEAE: fever", "setting": "[3]; SS population", "value": 20.8, "unit": "%"}, {"measurement": "TEAE: hypothyroidism", "setting": "[3]; SS population", "value": 14.9, "unit": "%"}, {"measurement": "TEAE: leukopenia", "setting": "[3]; SS population", "value": 83.1, "unit": "%"}, {"measurement": "TEAE: nausea", "setting": "[3]; SS population", "value": 31.8, "unit": "%"}, {"measurement": "TEAE: neutropenia", "setting": "[3]; SS population", "value": 83.4, "unit": "%"}, {"measurement": "TEAE: rash", "setting": "[3]; SS population", "value": 20.1, "unit": "%"}, {"measurement": "TEAE: thrombocytopenia", "setting": "[3]; SS population", "value": 68.5, "unit": "%"}, {"measurement": "proportion of SAEs judged by the investigator to be related to the treatment regimen", "setting": "[3]; SS population", "value": 31.2, "unit": "%"}, {"measurement": "proportion of SAEs occurring during treatment", "setting": "[3]; SS population", "value": 38.6, "unit": "%"}, {"measurement": "proportion of SAEs of grade 3 or higher judged by the investigator to be related to the treatment regimen", "setting": "[3]; SS population", "value": 22.4, "unit": "%"}, {"measurement": "proportion of TEAEs of grade 3 or higher as per CTCAE", "setting": "[3]; SS population", "value": 76.3, "unit": "%"}, {"measurement": "proportion of TEAEs of grade 3 or higher as per CTCAE judged by the investigator to be related to the treatment regimen", "setting": "[3]; SS population", "value": 71.4, "unit": "%"}, {"measurement": "proportion of patients who experienced at least 1 TEAE", "setting": "[3]; [6]", "value": 99.0, "unit": "%"}, {"measurement": "proportion of patients who experienced at least 1 TEAE related to the treatment regimen", "setting": "[3]; [6]", "value": 98.1, "unit": "%"}, {"measurement": "effect on chemotherapy-related toxicity (in words)", "setting": "[3]; [7]", "value": "did not increase chemotherapy-related toxicity"}, {"measurement": "effect on the incidence of adverse events of grade 3 or higher (in words)", "setting": "[3]; [7]", "value": "did not increase the incidence of adverse events of grade 3 or higher"}]}]}
